Assay results published in US20240240209A1, “SYNTHESIS OF ENANTIOPURE CIS-A-IRONE FROM A RENEWABLE CARBON SOURCE” (Agency for Science, Technology and Research, priority 2021, published 2024).
Residue numbers refer to the chain shown, from its start.

What was measured:
pMT7 = pMT7 (Streptomyces blastmyceticus, UniProt A0A077K7L1, A202L/L180A/L273V/S182E/Y200F/Y65F); test: biochemical
Procedure: (§1) It was calculated by dividing the pMT7 activity where no additive was added. […] It was calculated by dividing the pMT7 and pMT10 activity where no additive was added. […] All the purified enzyme reactions were done in triplicates. […] The bar chart represents the mean value of replicated reactions.
The steady-state kinetic parameters of pMT7 were determined (Table 3). […] Since pMT7 is an hexamer in solution^10, its oligomeric state before and after the reaction was examined.
(§2) Following enzyme purification, a 100 μl enzymatic reaction was setup with a final concentration of 0.5 mg/ml of enzyme, 40 mg/L psi-ionone, 0.2 mM SAM, 100 mM Tris (pH 7), 10 mM MgCl2 and 15 mM NaCl. The reaction was done in 0.2 ml PCR strips and incubated at 28° C., 1200 rpm overnight. Alongside, a control without enzyme (with 40% glycerol only) was included as negative control. The next day, cis-α-irone was extracted with 100 μl of ethyl acetate and 50 μl organic layer taken for GCMS analysis. For enzyme characterization, similar enzymatic reaction was performed, with varying concentration of psi-ionone (2-40 mg/L) and SAM (10-100 μM), and the reaction was stopped after 2 h incubation at 28° C. to ensure the enzymatic conversion is still within linear range.

pMT10 = pMT10 (Streptomyces blastmyceticus, UniProt A0A077K7L1, A202L/C156A/L180A/L273V/S182E/T91P/Y200F/Y65F); test: biochemical
Procedure: as §1, §2

pMT6 = test: Methylation and cyclization of structurally similar terpenoids by E. coli cell lysate overexpressing pMT6; assay type: biochemical, Streptomyces blastmyceticus; conditions: GFP lysate as control
Procedure: Using E. coli cell lysate overexpressing pMT6, a range of structurally similar terpenoids for methylation and cyclization reaction was assayed (FIG. 21a). E. coli lysate overexpressing green fluorescence protein was used as a control. […] Citral was not stable and was reduced to geraniol in the presence of cell lysate. […] Compound identity was searched against the National Institute of Standards and Technology (NIST) library. […] Lastly, for the monoterpene ketone, geranylacetone, with saturated C7-C8 bond, multiple methylated products were detected based on the molecular ion.

[1] = biological target: T1, Streptomyces blastmyceticus O-methyltransferase TleD (pMT1, SEQ ID No. 3) variant pMT7, Y200F S182E L273V L180A A202L Y65F, SEQ ID No. 9 (Streptomyces blastmyceticus, UniProt A0A077K7L1, A202L/L180A/L273V/S182E/Y200F/Y65F); test: Steady-state kinetics of purified pMT7; assay type: biochemical; conditions: pH 7, 28° C., 2 h
T1 sequence (A0A077K7L1 1-289 Y65F/L180A/S182E/Y200F/A202L/L273V): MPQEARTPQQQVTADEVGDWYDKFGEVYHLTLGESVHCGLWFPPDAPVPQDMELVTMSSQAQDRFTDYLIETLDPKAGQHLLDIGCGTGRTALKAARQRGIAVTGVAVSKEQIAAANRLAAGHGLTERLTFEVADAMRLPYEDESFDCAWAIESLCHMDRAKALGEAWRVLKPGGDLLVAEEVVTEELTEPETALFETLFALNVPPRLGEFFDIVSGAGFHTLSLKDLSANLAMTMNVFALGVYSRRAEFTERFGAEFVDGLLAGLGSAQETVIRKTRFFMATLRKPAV
Procedure: (§3) His-tag protein purification was carried out according to the manufacturer's instruction (Cube Biotech). For each enzyme, it was overexpressed in 200 ml of ZYM autoinduction media with 5 mM lactose at 20° C. for 36 hrs. Following that, cells were pelleted and resuspended with 10 ml of His-binding buffer (50 mM Tris, pH 8, 0.5M NaCl and 20 mM imidazole) supplemented with 1 mg/ml lysozyme and 3 U/ml of benzonase nuclease (Merck) and treated for 1 hour (hr) at 20° C., 300 rpm. The cells were further lysed by 2 cycles of freeze-thawing with freezing at −80° C. for 4 hrs and thawing at room temperature for 45 mins. The supernatant (soluble fraction) was obtained by centrifuging at 15,000 g for 30 mins at 4° C. […] Protein quantification and purity were determined through micro BCA assay (Pierce) and running SDS-PAGE, respectively.
(§4) To determine the purified enzyme kinetics and in vivo production, the reaction mixture was extracted with 0.5× or 1× volume of ethyl acetate and the organic phase was diluted appropriately before subjected to GCMS analysis. The samples were analyzed on an Agilent Intuvo 9000 GC system equipped with Agilent DB-WAX Ultra Inert Intuvo GC column (30 m×250 μm×0.25 μm) and Agilent 5977B mass spectrometry with high efficiency source. […] The concentration of psi-ionone and irone were calculated by interpolating with a standard curve prepared by synthetic standards.

[2] = biological target: T2, Streptomyces blastmyceticus O-methyltransferase TleD (pMT1, SEQ ID No. 3) variant pMT10, Y200F S182E L273V L180A A202L Y65F C156A T91P, SEQ ID No. 12 (Streptomyces blastmyceticus, UniProt A0A077K7L1, A202L/C156A/L180A/L273V/S182E/T91P/Y200F/Y65F); test: Steady-state kinetics of purified pMT10; assay type: biochemical; conditions: pH 7, 28° C., 2 h, psi-ionone 2-40 mg/L, SAM 10-100 μM
T2 sequence (A0A077K7L1 1-289 Y65F/T91P/C156A/L180A/S182E/Y200F/A202L/L273V): T1 sequence (A0A077K7L1 1-289 Y65F/L180A/S182E/Y200F/A202L/L273V) with T91P, C156A
Procedure: as §3, §4

[3] = SAH analogues (0-200 μM) or excess α-irone supplemented

Chain of pMT7 (A0A077K7L1 entry or part of it Y65F/L180A/S182E/Y200F/A202L/L273V): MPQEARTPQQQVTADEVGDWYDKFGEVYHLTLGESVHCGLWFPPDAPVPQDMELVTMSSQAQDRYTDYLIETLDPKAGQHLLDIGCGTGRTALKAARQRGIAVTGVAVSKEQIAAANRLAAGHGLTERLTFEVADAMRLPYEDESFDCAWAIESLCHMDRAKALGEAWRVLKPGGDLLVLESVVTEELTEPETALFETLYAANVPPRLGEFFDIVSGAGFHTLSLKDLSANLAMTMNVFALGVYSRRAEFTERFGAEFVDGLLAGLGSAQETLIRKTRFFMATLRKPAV
Chain of pMT10 (A0A077K7L1 entry or part of it Y65F/T91P/C156A/L180A/S182E/Y200F/A202L/L273V): as the sequence (A0A077K7L1 entry or part of it Y65F/L180A/S182E/Y200F/A202L/L273V) above

| Structure (SMILES) | effect on pMT7 methyltransferase activity (pMT7; [3]) | methylated products in pMT6 reaction (SPME-GCMS) (pMT6) | also measured |
| --- | --- | --- | --- |
| CC(=O)/C=C/C1C(C)=CCC(C)C1(C)C (stereo not drawn) [α-irone] | did not alter the methyltransferase activity significantly |  |  |
| Nc1ncnc2c1ncn2[C@@H]1O[C@H](CSCC[C@H](N)C(=O)O)[C@@H](O)[C@H]1O [SAH, S-adenosyl-L-homocysteine] |  |  | IC50 (pMT10): 3.1 µM; IC50 (pMT7): 4.9 µM; effect on pMT7 activity (pMT7; 2 μM SAH supplemented): led to a reduction in pMT7 activity; effect on pMT7 methyltransferase activity (pMT7; 20 µM SAH supplemented): nearly abolished the methyltransferase activity |
| Nc1ncnc2c1ncn2[C@@H]1O[C@H](CO)[C@@H](O)[C@H]1O [adenosine] | did not alter the methyltransferase activity significantly |  |  |
| CC(C)=CCCC(C)=CC=O [Citral] |  | not stable |  |
| CC(C)=CCC/C(C)=C/CO [geraniol] |  | detected methylated products |  |
| C=CC(C)(O)CCC=C(C)C (stereo not drawn) [linalool] |  | detected methylated products |  |
| N[C@@H](CCS)C(=O)O [homocysteine] | did not alter the methyltransferase activity significantly |  |  |
| CC(=O)/C=C/C=C(\C)CCC=C(C)C [psi-ionone] |  |  | kcat ([1]; Table 3): 4.4 ± 0.2 ×10^3 h^−1 |
| CC(=O)CC/C=C(\C)CCC=C(C)C [geranylacetone] |  | detected methylated products |  |
| C[S+](CC[C@H](N)C(=O)[O-])C[C@H]1O[C@@H](n2cnc3c(N)ncnc32)[C@H](O)[C@@H]1O (stereo partly drawn) [SAM, S-adenosylmethionine] |  |  | Km [2]: 30.5 ± 1.3 µM; Km ([1]; psi-ionone 2-40 mg/L, SAM 10-100 μM): 54.6 µM |
| Nc1ncnc2nc[nH]c12 [adenine] | did not alter the methyltransferase activity significantly |  |  |
